According to ChEMBL document CHEMBL5149981, “Carboxylesterase Notum Is a Druggable Target to Modulate Wnt Signaling” (J Med Chem, 2021):

Experiments:
[1] = target: T1, Palmitoleoyl-protein carboxylesterase NOTUM (Homo sapiens, UniProt Q6P988)
T1 sequence (Q6P988 whole entry): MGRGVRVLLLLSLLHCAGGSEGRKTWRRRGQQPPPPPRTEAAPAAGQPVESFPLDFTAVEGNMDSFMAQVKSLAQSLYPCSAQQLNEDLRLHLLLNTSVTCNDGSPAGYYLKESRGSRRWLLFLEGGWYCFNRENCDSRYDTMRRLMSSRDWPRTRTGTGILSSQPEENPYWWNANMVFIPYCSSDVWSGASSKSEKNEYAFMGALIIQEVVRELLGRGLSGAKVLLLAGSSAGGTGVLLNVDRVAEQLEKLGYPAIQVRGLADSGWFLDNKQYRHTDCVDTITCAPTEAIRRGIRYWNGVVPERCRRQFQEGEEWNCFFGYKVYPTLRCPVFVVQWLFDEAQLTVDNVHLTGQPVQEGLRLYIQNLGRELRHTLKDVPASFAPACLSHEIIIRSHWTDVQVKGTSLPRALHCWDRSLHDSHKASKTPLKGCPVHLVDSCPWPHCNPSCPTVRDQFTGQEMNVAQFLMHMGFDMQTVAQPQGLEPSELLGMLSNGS
Description: Inhibition of human Notum using OPTS substrate incubated for 1 hr by fluorescence based assay

[2] = target: T1, Palmitoleoyl-protein carboxylesterase NOTUM; remark: listed apart in the source
Description: Inhibition of C-terminal His-V5 tagged human Notum expressed in human HEK293F cells harbouring TCF/LEF luciferase reporter gene assessed as activation of Wnt signaling using WNT3A as substrate by Steady-Glo luciferase assay

[3] = target: T1, Palmitoleoyl-protein carboxylesterase NOTUM; remark: listed apart in the source
Description: Inhibition of human Notum using OPTS substrate by fluorescence based assay

Row | SMILES | IC50 [1] | EC50 [2] | IC50 [3]
1 | Cc1ccccc1OCC(=O)Nc1cccnc1 | 33 µM |  | 
2 | Cc1sc2ncnc(SCC(=O)O)c2c1Cl |  | 0.157 µM | 0.002 µM
3 | CC(=O)NCCc1c[nH]c2ccc(O)cc12 [ACETYLSEROTONIN] |  |  | 93.6 µM
